ChEMBL document CHEMBL1201862, “PubChem BioAssay data set” (2004)
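Where inhibition never reached the appropriate level, the endpoint shown equals the highest concentration tested. Otherwise, values were interpolated linearly from a five-concentration, 48-hour dose response in 96-well plates. Abbreviation: GI50, concentration required for 50% inhibition of growth.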 Active and inactive are the calls of the source. Cut-off read from the data, not from the text of the source: active = GI50 up to about 1.1 µM and inactive = higher.

Key:
Assay in all cases: inhibition of tumour cell growth, NCI panel, 48 h
SF-268 = test system: SF-268
MDA-N = test system: MDA-N
NCI-H226 = test system: NCI-H226
T47D = test system: T47D
SK-OV-3 = test system: SK-OV-3
COLO 205 = test system: COLO 205
SK-MEL-28 = test system: SK-MEL-28
Malme-3M = test system: Malme-3M
KM12 = test system: KM12
A549 = test system: A549
LOX IMVI = test system: LOX IMVI
CAKI-1 = test system: CAKI-1
SW-620 = test system: SW-620
MOLT-4 = test system: MOLT-4
CCRF-CEM = test system: CCRF-CEM
SF-295 = test system: SF-295
MDA-MB-231 = test system: MDA-MB-231
SR = test system: SR
PC-3 = test system: PC-3
TK-10 = test system: TK-10
HOP-92 = test system: HOP-92
ACHN = test system: ACHN
M14 = test system: M14
UACC-62 = test system: UACC-62
A498 = test system: A498
OVCAR-5 = test system: OVCAR-5
SK-MEL-2 = test system: SK-MEL-2
SN12C = test system: SN12C
DU-145 = test system: DU-145
UO-31 = test system: UO-31
HCT-15 = test system: HCT-15
OVCAR-3 = test system: OVCAR-3
RXF 393 = test system: RXF 393
NCI-H23 = test system: NCI-H23
HT-29 = test system: HT-29
HCT-116 = test system: HCT-116
SNB-75 = test system: SNB-75
MCF7 = test system: MCF7
HOP-62 = test system: HOP-62
OVCAR-8 = test system: OVCAR-8
U-251 = test system: U-251
IGROV-1 = test system: IGROV-1
EKVX = test system: EKVX
NCI-H522 = test system: NCI-H522
BT-549 = test system: BT-549
786-0 = test system: 786-0
HL-60 = test system: HL-60
SF-539 = test system: SF-539
Hs-578T = test system: Hs-578T
NCI/ADR-RES = test system: NCI/ADR-RES
MDA-MB-435 = test system: MDA-MB-435
K562 = test system: K562
RPMI-8226 = test system: RPMI-8226
UACC-257 = test system: UACC-257
SK-MEL-5 = test system: SK-MEL-5
HCC 2998 = test system: HCC 2998
SNB-19 = test system: SNB-19
NCI-H460 = test system: NCI-H460
OVCAR-4 = test system: OVCAR-4

Measured: GI50

O=C1C(CN2CCCCC2)CCC1CN1CCCCC1 (configuration not stated)
active: CCRF-CEM 1.06 µM
inactive: SF-268 49.8 µM | MDA-N 15 µM | NCI-H226 > 96.6 µM | T47D 13.5 µM | SK-OV-3 > 100 µM | COLO 205 14.7 µM | SK-MEL-28 20 µM | Malme-3M 17.7 µM | KM12 > 54.7 µM | A549 > 96.6 µM | LOX IMVI 16 µM | CAKI-1 9.48 µM | SW-620 6.37 µM | MOLT-4 2.22 µM | SF-295 > 46.5 µM | MDA-MB-231 20.2 µM | SR 1.6 µM | PC-3 27.1 µM | TK-10 17.8 µM | HOP-92 23.2 µM | ACHN 26 µM | M14 15.5 µM | UACC-62 17.3 µM | A498 15.2 µM | OVCAR-5 11.4 µM | SK-MEL-2 30.1 µM | SN12C 30.4 µM | DU-145 > 88.5 µM | UO-31 15 µM | OVCAR-3 17.1 µM | RXF 393 14.8 µM | NCI-H23 23.1 µM | HT-29 20.9 µM | HCT-116 24.5 µM | SNB-75 > 47.8 µM | MCF7 21.9 µM | HOP-62 > 100 µM | OVCAR-8 26.8 µM | U-251 > 46.7 µM | IGROV-1 32.1 µM | EKVX > 100 µM | NCI-H522 5.35 µM | BT-549 19.1 µM | 786-0 19.5 µM | HL-60 1.5 µM | SF-539 30.6 µM | Hs-578T > 51.3 µM | NCI/ADR-RES 37.4 µM | MDA-MB-435 33 µM | K562 1.2 µM | RPMI-8226 9.91 µM | UACC-257 30.3 µM | SK-MEL-5 43.9 µM | HCC 2998 > 44.7 µM | SNB-19 > 100 µM | NCI-H460 > 100 µM
20 µM: HCT-15

[N-]=[N+]=CC(=O)C1CCN(c2ccccc2)C1=O (configuration not stated)
> 10 µM: HCT-15
inactive: SF-268 > 10 µM | MDA-N > 10 µM | NCI-H226 > 10 µM | T47D > 10 µM | SK-OV-3 > 10 µM | COLO 205 > 10 µM | SK-MEL-28 > 10 µM | Malme-3M > 10 µM | KM12 > 10 µM | A549 > 10 µM | LOX IMVI > 10 µM | CAKI-1 > 10 µM | SW-620 > 10 µM | MOLT-4 > 10 µM | CCRF-CEM > 10 µM | SF-295 > 10 µM | MDA-MB-231 > 10 µM | SR > 10 µM | PC-3 > 10 µM | TK-10 > 10 µM | ACHN > 10 µM | M14 > 10 µM | UACC-62 > 10 µM | A498 > 10 µM | OVCAR-5 > 10 µM | SK-MEL-2 > 10 µM | SN12C > 10 µM | DU-145 > 10 µM | UO-31 > 10 µM | OVCAR-4 > 10 µM | OVCAR-3 > 10 µM | RXF 393 > 10 µM | NCI-H23 > 10 µM | HT-29 > 10 µM | HCT-116 > 10 µM | MCF7 > 10 µM | HOP-62 > 10 µM | OVCAR-8 > 10 µM | U-251 > 10 µM | IGROV-1 > 10 µM | EKVX > 10 µM | BT-549 > 10 µM | 786-0 > 10 µM | HL-60 > 10 µM | SF-539 > 10 µM | Hs-578T > 10 µM | NCI/ADR-RES > 10 µM | MDA-MB-435 > 10 µM | K562 > 10 µM | RPMI-8226 > 10 µM | UACC-257 > 10 µM | SK-MEL-5 > 10 µM | HCC 2998 > 10 µM | SNB-19 > 10 µM | NCI-H460 > 10 µM

C=CC(OC(C)=O)c1ccc(OC(C)=O)cc1 (configuration not stated)
8.24 µM: HCT-15
inactive: SF-268 4.92 µM | MDA-N 4.95 µM | NCI-H226 15.7 µM | T47D 2.72 µM | SK-OV-3 17.5 µM | COLO 205 3.85 µM | SK-MEL-28 9.27 µM | Malme-3M 2.92 µM | KM12 5.57 µM | A549 19.8 µM | LOX IMVI 2.88 µM | CAKI-1 4.88 µM | SW-620 2.21 µM | MOLT-4 3.31 µM | SF-295 7.62 µM | MDA-MB-231 3.3 µM | SR 2.69 µM | PC-3 2.56 µM | TK-10 2.17 µM | HOP-92 8.47 µM | ACHN 2.54 µM | M14 10.5 µM | UACC-62 14.8 µM | A498 12 µM | OVCAR-5 9.27 µM | SK-MEL-2 4.97 µM | SN12C 2.1 µM | DU-145 10.4 µM | UO-31 2.1 µM | OVCAR-4 17.2 µM | OVCAR-3 6.11 µM | RXF 393 14 µM | NCI-H23 17 µM | HT-29 4.8 µM | HCT-116 7.05 µM | SNB-75 3.88 µM | MCF7 11.4 µM | HOP-62 3.82 µM | OVCAR-8 3.94 µM | U-251 2.3 µM | IGROV-1 15.7 µM | EKVX 13.8 µM | NCI-H522 1.91 µM | BT-549 8.93 µM | 786-0 1.56 µM | HL-60 3.79 µM | SF-539 2.08 µM | Hs-578T 2.37 µM | NCI/ADR-RES 7.01 µM | MDA-MB-435 3.45 µM | K562 20 µM | RPMI-8226 2.25 µM | UACC-257 6.04 µM | SK-MEL-5 15 µM | HCC 2998 7.01 µM | SNB-19 13.9 µM | NCI-H460 17.1 µM
